Data reported in patent publication EP0908457B1, “3-(1,2-benzisothiazol- and isoxazol-5-Y1)-2,4(1H,3H)-pyrimidinedione or thione and 3-(1,2-benzisothiazol- and isoxazol-5-y1)-4(3H)-pyrimidinone or thione herbicidal agents” (BASF AKTIENGESELLSCHAFT, priority 1997, dated 1999).

Tests used:
[1] = test system: Echinochloa oryzoides (Ard.) Fritsch.; experiment: Preemergence weed control under flooded paddy conditions, ECHORC (Watergrass (Calif.)); type: in vivo; conditions: preemergence, flooded paddy, rated three to four weeks after treatment; on herbicidal effect rating, ECHORC: meaning of each grade not given here
[2] = test system: Oryza sativa, (L.) Tebonnet; experiment: Rice tolerance to post-transplant applications under flooded paddy conditions (Example 187), ORYSAT (Rice, Tebonnet); conditions: rated three to four weeks after treatment
Cyperus iria = experiment: Preemergence weed control under flooded paddy conditions, CYPIR (Rice Flatsedge); type: in vivo; conditions: preemergence, flooded paddy, rated three to four weeks after treatment; on herbicidal effect rating, CYPIR: meaning of each grade not given here
[3] = test system: Monochoria vaginalis, Presl.; experiment: Preemergence weed control under flooded paddy conditions, MOOVA (Monochoria); type: in vivo; conditions: preemergence, flooded paddy, rated three to four weeks after treatment; on herbicidal effect rating, MOOVA: meaning of each grade not given here
Sagittaria pygmaea, L. = experiment: Preemergence weed control under flooded paddy conditions, SAGPY (Arrowhead (Pygmaea)); type: in vivo; conditions: preemergence, flooded paddy, rated three to four weeks after treatment; on herbicidal effect rating, SAGPY: meaning of each grade not given here
[4] = test system: Cyperus serotinus, Rottb.; experiment: Preemergence weed control under flooded paddy conditions, CYPSE (Flatsedge); type: in vivo; conditions: preemergence, rated three to four weeks after treatment; further: meaning of each grade not given here

| Structure (SMILES) | herbicidal effect rating, ECHORC ([1]; 0.0313 kg/ha) | herbicidal effect rating, ECHORC ([1]; 0.0625 kg/ha) | herbicidal effect rating, ECHORC ([1]; 0.1250 kg/ha) | herbicidal effect rating, ECHORC ([1]; 0.2500 kg/ha) | herbicidal effect rating, ORYSAT (rice tolerance) ([2]; 0.0313 kg/ha) | herbicidal effect rating, ORYSAT (rice tolerance) ([2]; 0.0625 kg/ha) | herbicidal effect rating, ORYSAT (rice tolerance) ([2]; 0.1250 kg/ha) | herbicidal effect rating, ORYSAT (rice tolerance) ([2]; 0.2500 kg/ha) | ECHORC herbicidal effect rating ([1]; Rate 0.0320 kg/ha) | ECHORC herbicidal effect rating ([1]; Rate 0.0620 kg/ha) | ECHORC herbicidal effect rating ([1]; Rate 0.1250 kg/ha) | ECHORC herbicidal effect rating ([1]; Rate 0.2500 kg/ha) | CYPIR herbicidal effect rating (Cyperus iria; Rate 0.0320 kg/ha) | CYPIR herbicidal effect rating (Cyperus iria; Rate 0.0620 kg/ha) | CYPIR herbicidal effect rating (Cyperus iria; Rate 0.1250 kg/ha) | CYPIR herbicidal effect rating (Cyperus iria; Rate 0.2500 kg/ha) | MOOVA herbicidal effect rating ([3]; Rate 0.0320 kg/ha) | MOOVA herbicidal effect rating ([3]; Rate 0.0620 kg/ha) | MOOVA herbicidal effect rating ([3]; Rate 0.1250 kg/ha) | MOOVA herbicidal effect rating ([3]; Rate 0.2500 kg/ha) | further results |
| --- | --- | --- | --- | --- | --- | --- | --- | --- | --- | --- | --- | --- | --- | --- | --- | --- | --- | --- | --- | --- | --- |
| Cn1c(C(F)(F)F)cc(=O)n(-c2ccc3snc(Br)c3c2)c1=O [Example 36, 3-(3-Bromo-1,2-benzisothiazol-5-yl)-1-methyl-6-(trifluoromethyl)-2,4(1H,3H)-pyrimidinedione] | 0.0 | 0.0 | 0.0 | 0.0 | 1.0 | 1.0 | 1.0 | 1.0 | – | – | – | – | – | – | – | – | – | – | – | – | – |
| Cn1c(C(F)(F)F)cc(=O)n(-c2ccc3snc(Cl)c3c2)c1=O [Example 37, 3-(3-Chloro-1,2-benzisothiazol-5-yl)-1-methyl-6-(trifluoromethyl)-2,4(1H,3H)-pyrimidinedione] | 4.0 | 7.0 | 8.0 | 9.0 | 0.0 | 1.0 | 1.0 | 1.0 | – | – | – | – | – | – | – | – | – | – | – | – | – |
| Cc1ccc(OCC(=O)OC2CCCC2)c(-c2nsc3ccc(-n4c(=O)cc(C(F)(F)F)n(C)c4=O)cc23)c1 [Example 84, Cyclopentyl {{2-{5-[3,6-dihydro-3-methyl-2,6-dioxo-4-(trifluoromethyl)-1(2H)-pyrimidinyl]-1,2-benzisothiazol-3-yl}-p-tolyl}oxy}acetate] | 9.0 | 9.0 | 9.0 | 9.0 | 3.0 | 3.0 | 4.0 | 7.0 | – | – | – | – | – | – | – | – | – | – | – | – | – |
| Cc1ccc(OCC(=O)OC(C)C(C)(C)C)c(-c2nsc3ccc(-n4c(=O)cc(C(F)(F)F)n(C)c4=O)cc23)c1 (stereo not shown) [Example 85, 1,2,2-Trimethylpropyl {{2-{5-[3,6-dihydro-3-methyl-2,6-dioxo-4-(trifluoromethyl)-1(2H)-pyrimidinyl]-1,2-benzisothiazol-3-yl}-p-tolyl}oxy}acetate] | 8.0 | 9.0 | 9.0 | 9.0 | 0.0 | 0.0 | 0.0 | 1.0 | – | – | – | – | – | – | – | – | – | – | – | – | – |
| Cn1c(C(F)(F)F)cc(=O)n(-c2ccc3snc(CP(=O)(O)O)c3c2)c1=O [Example 92, {{5-[3,6-Dihydro-3-methyl-2,6-dioxo-4-(trifluoromethyl)-1(2H)-pyrimidinyl]-1,2-benzisothiazol-3-yl}methyl}phosphonic acid] | 4.0 | 6.0 | 9.0 | 9.0 | 3.0 | 5.0 | 6.0 | 6.0 | – | – | – | – | – | – | – | – | – | – | – | – | – |
| Cn1c(C(F)(F)F)cc(=O)n(-c2ccc3snc(/C=C/C=O)c3c2)c1=O [Example 291, 1,2-Benzisothiazole-3-acrylaldehyde, 5-[3,6-dihydro-3-methyl-2,6-dioxo-4-(trifluoromethyl)-1(2H)-pyrimidinyl]-, (E)-] | – | – | – | – | – | – | – | – | 0.0 | 0.0 | 0.0 | 0.0 | 0.0 | 0.0 | 9.0 | 9.0 | 0.0 | 9.0 | 9.0 | 9.0 | SAGPY herbicidal effect rating (Sagittaria pygmaea, L.; Rate 0.0320 kg/ha): 0.0; SAGPY herbicidal effect rating (Sagittaria pygmaea, L.; Rate 0.0620 kg/ha): 0.0; SAGPY herbicidal effect rating (Sagittaria pygmaea, L.; Rate 0.1250 kg/ha): 0.0; SAGPY herbicidal effect rating (Sagittaria pygmaea, L.; Rate 0.2500 kg/ha): 0.0; ORYSAT herbicidal effect rating ([2]; Rate 0.0320 kg/ha): 0.0; ORYSAT herbicidal effect rating ([2]; Rate 0.0620 kg/ha): 0.0; ORYSAT herbicidal effect rating ([2]; Rate 0.1250 kg/ha): 0.0; ORYSAT herbicidal effect rating ([2]; Rate 0.2500 kg/ha): 0.0 |
| COC(=O)COCc1nsc2ccc(-n3c(=O)cc(C(F)(F)F)n(C)c3=O)cc12 [Example 292, Acetic acid, {{5-[3,6-dihydro-3-methyl-2,6-dioxo-4-(trifluoromethyl)-1(2H)-pyrimidinyl]-1,2-benzisothiazol-3-yl}methoxy}-, methyl ester] | – | – | – | – | – | – | – | – | 0.0 | 0.0 | 0.0 | 0.0 | 9.0 | 9.0 | 9.0 | 9.0 | 9.0 | 9.0 | 9.0 | 9.0 | SAGPY herbicidal effect rating (Sagittaria pygmaea, L.; Rate 0.0320 kg/ha): 0.0; SAGPY herbicidal effect rating (Sagittaria pygmaea, L.; Rate 0.0620 kg/ha): 0.0; SAGPY herbicidal effect rating (Sagittaria pygmaea, L.; Rate 0.1250 kg/ha): 0.0; SAGPY herbicidal effect rating (Sagittaria pygmaea, L.; Rate 0.2500 kg/ha): 5.0; ORYSAT herbicidal effect rating ([2]; Rate 0.0320 kg/ha): 0.0; ORYSAT herbicidal effect rating ([2]; Rate 0.0620 kg/ha): 0.0; ORYSAT herbicidal effect rating ([2]; Rate 0.1250 kg/ha): 0.0; ORYSAT herbicidal effect rating ([2]; Rate 0.2500 kg/ha): 0.0 |
| Cn1c(C(F)(F)F)cc(=O)n(-c2ccc3snc(COCC(=O)O)c3c2)c1=O [Example 293, Acetic acid, {{5-[3,6-dihydro-3-methyl-2,6-dioxo-4-(trifluoromethyl)-1(2H)-pyrimidinyl]-1,2-benzisothiazol-3-yl}methoxy}-] | – | – | – | – | – | – | – | – | 0.0 | 0.0 | 0.0 | 0.0 | 9.0 | 9.0 | 9.0 | 9.0 | 9.0 | 9.0 | 9.0 | 9.0 | SAGPY herbicidal effect rating (Sagittaria pygmaea, L.; Rate 0.0320 kg/ha): 0.0; SAGPY herbicidal effect rating (Sagittaria pygmaea, L.; Rate 0.0620 kg/ha): 0.0; SAGPY herbicidal effect rating (Sagittaria pygmaea, L.; Rate 0.1250 kg/ha): 0.0; SAGPY herbicidal effect rating (Sagittaria pygmaea, L.; Rate 0.2500 kg/ha): 6.0; ORYSAT herbicidal effect rating ([2]; Rate 0.0320 kg/ha): 0.0; ORYSAT herbicidal effect rating ([2]; Rate 0.0620 kg/ha): 0.0; ORYSAT herbicidal effect rating ([2]; Rate 0.1250 kg/ha): 0.0; ORYSAT herbicidal effect rating ([2]; Rate 0.2500 kg/ha): 0.0 |
| Cn1c(C(F)(F)F)cc(=O)n(-c2ccc3snc(COCC(=O)NS(C)(=O)=O)c3c2)c1=O [Example 294, Acetamide, 2-{{5-[3,6-dihydro-3-methyl-2,6-dioxo-4-(trifluoromethyl)-1(2H)-pyrimidinyl]-1,2-benzisothiazol-3-yl}methoxy}-N-(methylsulfonyl)-] | – | – | – | – | – | – | – | – | 0.0 | 0.0 | 0.0 | 0.0 | 0.0 | 0.0 | 3.0 | 9.0 | 9.0 | 9.0 | 9.0 | 9.0 | SAGPY herbicidal effect rating (Sagittaria pygmaea, L.; Rate 0.0320 kg/ha): 0.0; SAGPY herbicidal effect rating (Sagittaria pygmaea, L.; Rate 0.0620 kg/ha): 0.0; SAGPY herbicidal effect rating (Sagittaria pygmaea, L.; Rate 0.1250 kg/ha): 0.0; SAGPY herbicidal effect rating (Sagittaria pygmaea, L.; Rate 0.2500 kg/ha): 0.0; ORYSAT herbicidal effect rating ([2]; Rate 0.0320 kg/ha): 0.0; ORYSAT herbicidal effect rating ([2]; Rate 0.0620 kg/ha): 0.0; ORYSAT herbicidal effect rating ([2]; Rate 0.1250 kg/ha): 0.0; ORYSAT herbicidal effect rating ([2]; Rate 0.2500 kg/ha): 0.0 |
| Cn1c(C(F)(F)F)cc(=O)n(-c2ccc3snc(C(C#N)=CC4CCCC4)c3c2)c1=O [Example 607, 1,2-Benzisothiazole-3-acetonitrile, alpha(cyclopentylmethylene)-5-[3,6-dihydro-3-methyl-2,6-dioxo-4-(trifluoromethyl)-1(2H)-pyrimidinyl]-, (E)- and (Z)-] | – | – | – | – | – | – | – | – | – | – | – | – | – | – | – | – | – | – | – | – | herbicidal effect rating, ECHORC ([1]; Rate 0.0320 kg/ha): 4.0; herbicidal effect rating, ECHORC ([1]; Rate 0.0620 kg/ha): 7.0; herbicidal effect rating, ECHORC ([1]; Rate 0.1250 kg/ha): 9.0; herbicidal effect rating, ECHORC ([1]; Rate 0.2500 kg/ha): 9.0; herbicidal effect rating, CYPIR (Cyperus iria; Rate 0.0320 kg/ha): 0.0; herbicidal effect rating, CYPIR (Cyperus iria; Rate 0.0620 kg/ha): 2.0; herbicidal effect rating, CYPIR (Cyperus iria; Rate 0.1250 kg/ha): 5.0; herbicidal effect rating, CYPIR (Cyperus iria; Rate 0.2500 kg/ha): 5.0; herbicidal effect rating, CYPSE ([4]; Rate 0.0620 kg/ha): 0.0; herbicidal effect rating, CYPSE ([4]; Rate 0.1250 kg/ha): 0.0; herbicidal effect rating, CYPSE ([4]; Rate 0.2500 kg/ha): 0.0; herbicidal effect rating, MOOVA ([3]; Rate 0.0320 kg/ha): 6.0; herbicidal effect rating, MOOVA ([3]; Rate 0.0620 kg/ha): 7.0; herbicidal effect rating, MOOVA ([3]; Rate 0.1250 kg/ha): 9.0; herbicidal effect rating, MOOVA ([3]; Rate 0.2500 kg/ha): 9.0; herbicidal effect rating, SAGPY (Sagittaria pygmaea, L.; Rate 0.0320 kg/ha): 0.0; herbicidal effect rating, SAGPY (Sagittaria pygmaea, L.; Rate 0.0620 kg/ha): 0.0; herbicidal effect rating, SAGPY (Sagittaria pygmaea, L.; Rate 0.1250 kg/ha): 0.0; herbicidal effect rating, SAGPY (Sagittaria pygmaea, L.; Rate 0.2500 kg/ha): 3.0 |
